The values that follow come from patent US7078414B2, “Derivatives of 3-guanidinocarbonyl-1-heteroaryl-pyrrole, preparation process and intermediates of this process, their use as medicaments, and pharmaceutical compositions comprising them” (Sanofi-Aventis Deutschland GmbH, priority 2002, dated 2006).

One data set has as its target T1, NHE-1 subtype (Homo sapiens, UniProt P19634).
T1 construct: expressed in transfected cells; host or cells: LAP-1 cells (parental line has no endogenous NHE activity), stably transfected and kept under G418 selection
Put plainly: NHE inhibition FLIPR test (intracellular pH recovery, BCECF) in transfected LAP-1 cell lines expressing NHE subtypes. It is filed as cell-based. As to conditions: transfected LAP-1 cells expressing NHE-1 subtype, read-out: IC50 (NHE1). The protocol: The NHE inhibitory activities (IC50 values) of the compounds according to the invention were determined by a FLIPR test.
The test is performed in the FLIPR (Fluorescent Imaging Plate Reader) equipped with clear-bottomed and black-walled 96-well microtitration plates.
The growth medium for the transfected cells (Iscove +10% foetal calf serum) also comprises G418 as selection antibiotic to ensure the presence of transfected sequences.
The actual test begins by eliminating the growth medium and adding 100 μl of loading buffer per well (5 μM of BCECF-AM [2′,7′-bis(2-carboxyethyl)-5-(6)-carboxyfluoresceine acetoxymethyl ester] in 20 mM of NH4Cl, 115 mM of choline chloride, 1 mM of CaCl2, 5 mM of KCl, 20 mM of HEPES and 5 mM of glucose; pH 7.4 (adjusted with KOH). The cells are then incubated for 20 minutes at 37° C. This incubation results in the loading of the fluorescent dye into the cells, the fluorescence intensity of which depends on the pHi, and on the NH4Cl, which results in a slight basification of the cells.
The precursor BCECF-AM, a non-fluorescent dye, is, as an ester, capable of crossing the membrane. The actual dye, which is incapable of crossing the membrane, is released inside the cell by esterases.
After this 20-minute incubation, the loading buffer, which comprises NH4Cl and free BCECF-AM, is removed by washing three times in the cell washing device (Tecan Columbus), each wash being performed with 400 μL of washing buffer (133.8 mM of choline chloride, 4.7 mM of KCl, 1.25 mM of MgCl2, 1.25 mM of CaCl2, 0.97 mM of K2HPO4, 0.23 mM of KH2PO4, 5 mM of HEPES and 5 mM of glucose; pH 7.4 (adjusted with KOH)). The residual volume remaining in the wells is 90 μL (possibly between 50 and 125 μL). This washing step removes the free BCECF-AM and results in an intracellular acidification (pHi of 6.3–6.4) due to the removal of the external ammonium ions.
As the equilibrium of the intracellular ammonium with the aqueous ammonia and the protons, by removal of the extracellular ammonium and by the subsequent immediate crossing of the aqueous ammonia across the cell membrane, is disrupted, the washing process results in intracellular protons remaining, which is the cause of the intracellular acidification. This acidification can result finally in the death of the cells if it lasts long enough. It is important here for the washing buffer to be free of sodium (<1 mM), otherwise the extracellular sodium ions would result in an immediate increase in the pHi on account of the activity of the cloned NHE isoforms. It is also important for all the buffers used (loading buffer, washing buffer and regeneration buffer) not to contain any HCO3-ions, otherwise the presence of bicarbonate would result in the activation of bicarbonate-dependent systems that disrupt the pHi regulation, which systems are contained in the LAP-1 parental cell line.
The microtiter plates containing acidified cells are then transferred (up to 20 minutes after the acidification) to the FLIPR. In the FLIPR, the intracellular fluorescent dye is activated with light of a wavelength of 488 nm, which is generated by an argon laser, and the measuring parameters (laser power, illumination time and diaphragm of the […] camera integrated into the FLIPR) are chosen such that the average value of the f fluorescent signal per well is between 30,000 and 35,000 relative fluorescence units.
The actual measurement in the FLIPR starts with a photograph being taken by the CCD camera every two seconds under software control. After 10 seconds, the increase in the intracellular pH is initiated by adding 90 μL of regeneration buffer (133.8 mM of NaCl, 4.7 mM of KCl, 1.25 mM of MgCl2, 1.25 mM of CaCl2, 0.97 mM of K2HPO4, 0.23 mM of KH2PO4, 10 mM of HEPES and 5 mM of glucose; pH 7.4 (adjusted with NaOH)) using a 96-well pipette device incorporated into the FLIPR.
Some wells, to which is added pure regeneration buffer, serve as positive controls (100% NHE activity). […]

T1 sequence (P19634 whole entry): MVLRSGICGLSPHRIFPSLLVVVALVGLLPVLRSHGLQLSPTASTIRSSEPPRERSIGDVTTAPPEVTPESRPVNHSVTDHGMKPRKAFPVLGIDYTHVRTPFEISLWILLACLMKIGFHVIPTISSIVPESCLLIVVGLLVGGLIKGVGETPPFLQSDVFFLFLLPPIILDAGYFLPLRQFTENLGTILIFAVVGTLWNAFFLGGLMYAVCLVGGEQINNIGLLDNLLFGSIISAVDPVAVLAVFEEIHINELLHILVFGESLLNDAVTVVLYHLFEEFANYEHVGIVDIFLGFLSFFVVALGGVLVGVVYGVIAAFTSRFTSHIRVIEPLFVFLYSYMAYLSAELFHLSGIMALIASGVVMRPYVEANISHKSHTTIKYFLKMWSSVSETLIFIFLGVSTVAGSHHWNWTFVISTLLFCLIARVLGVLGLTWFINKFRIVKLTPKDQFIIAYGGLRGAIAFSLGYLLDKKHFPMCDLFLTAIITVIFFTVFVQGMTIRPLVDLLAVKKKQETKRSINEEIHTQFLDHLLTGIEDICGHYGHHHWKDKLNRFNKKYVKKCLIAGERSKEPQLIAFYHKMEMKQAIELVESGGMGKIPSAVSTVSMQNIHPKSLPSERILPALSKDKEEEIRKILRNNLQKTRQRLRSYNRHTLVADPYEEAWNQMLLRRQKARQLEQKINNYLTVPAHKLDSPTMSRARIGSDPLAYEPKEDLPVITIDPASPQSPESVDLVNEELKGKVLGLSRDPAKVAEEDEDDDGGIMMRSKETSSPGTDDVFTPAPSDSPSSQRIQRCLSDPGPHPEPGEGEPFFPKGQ

In the case of `Cc1cn(-c2nccc3ccccc23)cc1C(=O)NC(=N)N.Cl` [Example 10, 3-Guanidinocarbonyl-1-(isoquinol-1-yl)4-methyl-1H-pyrrole hydrochloride], the melting point (in general, the temperature, or range, at which the solid turns liquid) was 247 °C. For the same compound, the IC50 – broadly, the point on the concentration scale where inhibition reaches its midpoint – at NHE-1 subtype was found to be 0.16 nM.
The matching figures for `N=C(N)NC(=O)c1ccn(-c2cccc3cccnc23)c1` [Example 7, 3-Guanidinocarbonyl-1-(quinol-8-yl)-1H-pyrrole]: 155 °C and 90 nM.
